Laboratory results published in ChEMBL document CHEMBL4342490, “Discovery of Potent and Selective MTH1 Inhibitors for Oncology: Enabling Rapid Target (In)Validation” (ACS Med Chem Lett, 2020).
In brackets after ≈: the same amount, converted by molar mass. Activity calls are given as the source filed them. The rule behind the calls is not given here.

What was measured:
[1] = Cytotoxicity against human MT4 cells assessed as reduction in cell viability incubated for 72 hrs by celltiter glo assay; assay type: cell-based
[2] = molecular target: CYP isoform (not specified) (Homo sapiens, UniProt P04798+P05177+P05181+P08684+P10632+P10635+P11509+P11712+P13584+P20813+P20815+P20853+P24462+P24903+P33260+P33261+P51589+P78329+P98187+Q02928+Q08477+Q16678+Q16696+Q5TCH4+Q6VVX0+Q7Z449+Q8TAV3+Q96SQ9+Q9HB55); assay: Inhibition of CYP isoform (unknown origin); assay type: ADME, protein assay
[3] = Permeability across apical to basolateral side in human Caco2 cells; conditions: Caco-2
[4] = molecular target: Voltage-gated inwardly rectifying potassium channel KCNH2 (Homo sapiens, UniProt Q12809); assay: Inhibition of human ERG
[5] = Volume of distribution in Sprague-Dawley rat at 5 mg/kg, po or 1 mg/kg, iv; assay type: ADME, organism-based; conditions: in vivo
U2OS [6] = assay: Induction of DNA damage in human U2OS cells assessed as increase in gammaH2AX foci formation at 20 uM incubated for 72 hrs by immunostaining based confocal microscopy; assay type: functional, cell-based
[7] = Permeability across basolateral to apical side in human Caco2 cells; assay type: ADME, cell-based; conditions: Caco-2, read-out: permeability
[8] = Oral bioavailability in Sprague-Dawley rat at 5 mg/kg; assay type: ADME, organism-based; conditions: in vivo
[9] = molecular target: T1, Nuclear receptor subfamily 1 group I member 2 (Homo sapiens, UniProt O75469); assay: Activation of human PXR at 15 uM
T1 sequence (O75469 whole entry): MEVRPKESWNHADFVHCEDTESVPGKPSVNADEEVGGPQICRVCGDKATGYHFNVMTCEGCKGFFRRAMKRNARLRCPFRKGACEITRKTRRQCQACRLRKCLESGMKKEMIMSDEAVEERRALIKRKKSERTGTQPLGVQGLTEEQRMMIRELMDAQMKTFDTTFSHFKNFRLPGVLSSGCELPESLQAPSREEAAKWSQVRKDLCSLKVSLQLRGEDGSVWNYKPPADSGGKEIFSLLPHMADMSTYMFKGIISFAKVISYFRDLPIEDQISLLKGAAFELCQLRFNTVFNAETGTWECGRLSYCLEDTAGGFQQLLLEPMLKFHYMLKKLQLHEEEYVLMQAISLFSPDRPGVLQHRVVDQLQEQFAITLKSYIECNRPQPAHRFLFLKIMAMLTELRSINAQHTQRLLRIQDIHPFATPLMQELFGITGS

[10] = Kinetic solubility of compound at pH 2; conditions: buffer
[11] = Half life in Sprague-Dawley rat at 5 mg/kg, po or 1 mg/kg, iv; assay type: ADME, organism-based; conditions: in vivo
[12] = Clearance in Sprague-Dawley rat at 5 mg/kg, po or 1 mg/kg, iv; assay type: ADME, organism-based; conditions: in vivo
U2OS [13] = assay: Cytotoxicity against human U2OS cells assessed as reduction in cell viability incubated for 72 hrs by celltiter glo assay
[14] = Kinetic solubility of compound at pH 7; conditions: buffer
[15] = Dissociation constant, pKa of the compound; assay type: physicochemical
SW480 = assay: Cytotoxicity against human SW480 cells assessed as reduction in cell viability incubated for 72 hrs by celltiter glo assay; conditions: SW480, 72 h
[16] = molecular target: Oxidized purine nucleoside triphosphate hydrolase (Homo sapiens) (UniProt P36639); assay: Inhibition of MTH1 in human U2OS cells assessed as activation of p53 at 2.25 uM incubated for 4 and 24 hrs by Peggy sue Western blot assay; assay type: cell-based
[17] = Stability of compound in human plasma assessed as half life; assay type: ADME, cell-free
[18] = Stability of compound in rat plasma assessed as half life; assay type: ADME, cell-free
[19] = Chemical stability of compound at pH 6 to 9 at 40 degreeC; assay type: physicochemical; conditions: buffer
[20] = Lipophilicity, logD of the compound at pH 7.4; assay type: physicochemical; conditions: buffer
[21] = Glutathione reactivity of compound; assay type: physicochemical

Voltage-gated inwardly rectifying potassium channel KCNH2, sequence (Q12809 whole entry): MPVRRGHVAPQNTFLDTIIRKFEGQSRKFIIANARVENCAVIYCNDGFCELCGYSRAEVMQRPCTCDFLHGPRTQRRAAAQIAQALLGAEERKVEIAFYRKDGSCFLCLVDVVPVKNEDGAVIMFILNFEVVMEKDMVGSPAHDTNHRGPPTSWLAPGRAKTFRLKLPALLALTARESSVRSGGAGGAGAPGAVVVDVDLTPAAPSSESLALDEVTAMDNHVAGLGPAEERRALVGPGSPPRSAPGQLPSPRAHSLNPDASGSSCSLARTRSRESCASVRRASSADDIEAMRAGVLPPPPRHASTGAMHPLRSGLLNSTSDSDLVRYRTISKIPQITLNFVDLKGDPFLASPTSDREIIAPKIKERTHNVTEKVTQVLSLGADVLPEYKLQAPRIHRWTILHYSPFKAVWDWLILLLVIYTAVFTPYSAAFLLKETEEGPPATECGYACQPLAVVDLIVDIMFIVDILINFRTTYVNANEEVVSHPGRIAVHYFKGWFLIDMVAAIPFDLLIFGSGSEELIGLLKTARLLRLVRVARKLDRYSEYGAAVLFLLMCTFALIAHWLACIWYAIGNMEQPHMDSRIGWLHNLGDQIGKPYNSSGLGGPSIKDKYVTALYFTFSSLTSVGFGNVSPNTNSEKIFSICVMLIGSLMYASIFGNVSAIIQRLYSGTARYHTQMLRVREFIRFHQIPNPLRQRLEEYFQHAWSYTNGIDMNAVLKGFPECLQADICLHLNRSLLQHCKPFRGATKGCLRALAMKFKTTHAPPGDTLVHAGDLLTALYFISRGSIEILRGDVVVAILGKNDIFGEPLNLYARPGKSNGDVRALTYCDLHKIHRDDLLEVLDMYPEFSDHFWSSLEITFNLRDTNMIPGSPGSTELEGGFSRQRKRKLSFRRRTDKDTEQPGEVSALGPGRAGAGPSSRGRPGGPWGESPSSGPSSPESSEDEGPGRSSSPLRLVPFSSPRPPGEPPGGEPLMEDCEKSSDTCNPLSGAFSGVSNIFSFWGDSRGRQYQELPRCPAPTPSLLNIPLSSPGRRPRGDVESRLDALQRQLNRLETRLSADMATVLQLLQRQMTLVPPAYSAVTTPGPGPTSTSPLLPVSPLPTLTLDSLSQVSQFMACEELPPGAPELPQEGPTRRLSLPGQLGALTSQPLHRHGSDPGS

Nc1nc2cccc(-c3cccc(Cl)c3Cl)n2n1
CC50 at 72 h [1]: > 50 µM | IC50 [2]: > 25 µM | Papp A→B [3]: 41 ×10⁻⁶ cm/s | IC50 [4]: > 25 µM | Vd [5]: 2.7 L/kg | Activity (U2OS [6]): inactive | Papp B→A [7]: 34 ×10⁻⁶ cm/s | bioavailability [8]: 86% | Activity [9]: Not Active | solubility kinetic [10]: 93 µM (≈ 26 µg/mL) | half-life [11]: 192 min | clearance [12]: 12.2 mL/min/kg | EC50 (U2OS [13]): 20.3 µM | solubility kinetic [14]: 74 µM (≈ 20.7 µg/mL)

CNc1cc(N(C)[C@@H](C)c2ccccc2)nc(N)n1
EC50 (U2OS [13]): 24.9 µM

CC(=O)Nc1cc2ncccc2c(-c2cccc(C)c2C)n1
Papp A→B [3]: 37 ×10⁻⁶ cm/s | Papp B→A [7]: 45 ×10⁻⁶ cm/s | pKa [15]: 3.5

C[C@H](Oc1cc(-c2cnn(C3CCNCC3)c2)cnc1N)c1c(Cl)ccc(F)c1Cl
EC50 (U2OS [13]): 6.8 µM

CNc1cc(N2CCCCC2)nc(N)n1
Activity (U2OS [6]): inactive

Nc1nc(NC2CC2)cc(-c2cccc(Cl)c2Cl)n1
EC50 (SW480): 9.7 µM | EC50 (U2OS [13]): 5.6 µM

CNc1cc(-c2cccc(Cl)c2Cl)nc(N)n1
CC50 at 72 h [1]: 0.726 µM | EC50 (SW480): 3 µM | Activity (U2OS [6]): Active | Activity [16]: Active | EC50 (U2OS [13]): 0.7 to 1.8 µM

Nc1nc2c(-c3cccc(Cl)c3Cl)cccc2[nH]1
EC50 (U2OS [13]): 14.4 µM

COc1ccc2nc3[nH]nc(C)c3c(NCCOCCO)c2c1
EC50 (U2OS [13]): > 20 µM

O=C1c2c(O)ccc(O)c2C(=O)c2c(NCCNCCO)ccc(NCCNCCO)c21
inhibition [16]: Active

CC(=O)Nc1cc2c(c(-c3cccc(C)c3C)n1)CCCN2
half-life [17]: 252 min | half-life [18]: 446 min | CC50 at 72 h [1]: 19 µM | Papp A→B [3]: 35 ×10⁻⁶ cm/s | Stability [19]: Stable | Activity (U2OS [6]): inactive | logD [20]: 2.5 | Papp B→A [7]: 32 ×10⁻⁶ cm/s | solubility kinetic [10]: 97 µM (≈ 28.7 µg/mL) | Activity [21]: Not Active | pKa [15]: 7.5 | EC50 (U2OS [13]): 8.05 µM | solubility kinetic [14]: 70 µM (≈ 20.7 µg/mL)
